Results: patent US20260068882A1, “ARTHROPOD CONTROLLING COMPOSITION” (Firmenich SA, priority 2019, published 2026)
Read-outs that look alike come from different tables or passages of the source.

What was measured:
[1] = system: Ixodes ricinus; assay: In vitro Warm Plate Assay for ticks; assay type: in vivo; settings: for percentage of ticks affected overtime: 20% (w/w) in ethanol; for concentration at which the level of 85% of ticks affected is reached: Tables 10 and 12
Method: Repellent efficacy of the different compounds was assessed against the sheep tick, Ixodes ricinus. I. ricinus is one of the recommended model organisms mentioned by the Guidance on the European Biological Products Regulation [Vol II, Efficacy-Assessment & Evaluation (Parts B+C), v. 3.0, April 2018]. Observations of repellent efficacy were made on last stage nymphs.
The repellent efficacy was assessed using the protocol of the in-vitro Warm Plate Assay as defined in Kröber T, Bourquin M, Guerin P M. A standardized in vivo and in vitro test method for evaluating tick repellents. Pesticide Biochemistry and Physiology. 2013; 107 (2): 160-168.].
The mean±SD number of ticks Ixodes ricinus walking down (affected), falling (affected) or walking-up (non affected) from the warm plate treated with ethanol, N,N-diethyl-3-methylbenzamide, (2,5-dimethyl-2,3-dihydro-1H-inden-2yl)methanol (Ingredient 2) or (2,4,6-trimethyl-2,3-dihydro-1H-inden-2-yl)methanol (Ingredient 1) diluted in ethanol at 0.4 mg/ml and 10 mg/mL was assessed on n groups of 12 ticks (n=2-5).
In this in-vitro assay, the percentage of ticks Ixodes ricinus affected by the stimulus loaded on the warm plate was measured in order to assess the repellency effect. Twelve ticks were assessed per concentrations that goes from 0.0016% up to 1% in ethanol.
Using the same in-vitro setup, the effect on ticks behavior (n≥12) of different stimuli diluted in ethanol at 20% (w/w) was assessed overtime.

[2] = system: Aedes aegypti; assay: In vitro Warm Body assay, mosquitoes landing on treated warm body; assay type: in vivo; settings: for % of mosquitoes' repellency: normalised to landing with 100% ethanol
Method: (§1) The arthropod controlling effect according to the present invention is determined on mosquitoes using an adapted Warm Body assay as defined in Kröber T, Kessler S, Frei J, Bourquin M, Guerin P M. An in vitro assay for testing mosquito controlling compounds employing a warm body and carbon dioxide as a behavioral activator. J Am Mosq Control Assoc. 2010; 26:381-386.
(§2) The controlling effect according to the present invention is determined by testing the Warm Body assay against the yellow fever mosquito, Aedes aegypti Rockefeller strain. […] Observations of controlling efficacy were made on host-seeking females of uniform age, 5 to 10 days old selected as mentioned in the publication mentioned hereinabove. Tested hungry females had access to 10% sugar solution but were not blood-fed.
(§3) The published protocol has been adapted in not manually counting the landing mosquitoes but automatically using an automatic counting software, the switch from Anopheles gambiae to A. aegypti led to a decrease of mosquitoes' number placed in the tested cage due to the size difference (i.e. 30 mosquitoes instead of 50) and to an increase of lighting as A. aegypti is a diurnal mosquitoes (i.e. 150 lux instead of 4 lux).
as §2, with “A.” for “Aedes”
as §1, with “The” for “The arthropod”, “was assessed” for “is determined on mosquitoes”
as §3, with “Aedes” for “A.”
In this in-vitro assay the number of A. aegypti landing on a warm body treated with the tested stimuli was measured in order to assess the repellency effect. Three replicates were carried on the three different doses: 0.0016%, 0.04% and 1% in ethanol, using 25 A. aegypti 10-12 days old females per cage.
In this in-vitro assay, the number of Aedes aegypti landing on a warm body treated with the tested stimuli was measured in order to assess the repellency effect. Three replicates were carried on the three different doses: 0.0016%, 0.04% and 1% in ethanol.
In this in-vitro assay, the number of Aedes aegypti landing on a warm body treated with the tested stimuli was measured in order to assess the repellency effect. One replicate was carried at different doses ranging from 0.0016% up to 1% in ethanol.

[3] = Ixodes ricinus, 0.04% (Table 10), read-out: percentage of ticks affected on the Warm Plate
[4] = Ixodes ricinus, 0.2% (Table 10), read-out: percentage of ticks affected on the Warm Plate
[5] = Ixodes ricinus, 1% (Table 10), read-out: percentage of ticks affected on the Warm Plate
[6] = Ixodes ricinus, 0.0016% (Table 11), read-out: percentage of ticks affected on the Warm Plate
[7] = Ixodes ricinus, 0.04% (Table 11), read-out: percentage of ticks affected on the Warm Plate
[8] = Ixodes ricinus, 1% (Table 11), read-out: percentage of ticks affected on the Warm Plate
[9] = Aedes aegypti, read-out: decrease of landings

CCCCN(CCC(=O)OCC)C(C)=O [IR3535, 3-[N-n-butyl-N-acetyl]aminopropionic acid ethylester, reference compound]
percentage of ticks affected on the Warm Plate ([1]; 0.0016% in ethanol (Table 12)): 0%
percentage of ticks affected on the Warm Plate ([1]; 0.0053% in ethanol (Table 12)): 0%
percentage of ticks affected on the Warm Plate ([1]; 0.008% in ethanol (Table 12)): 8%
percentage of ticks affected on the Warm Plate ([1]; 0.0119% in ethanol (Table 12)): 0%
percentage of ticks affected on the Warm Plate ([1]; 0.0178% in ethanol (Table 12)): 0%
percentage of ticks affected on the Warm Plate ([1]; 0.0267% in ethanol (Table 12)): 0%
percentage of ticks affected on the Warm Plate ([1]; 0.04% in ethanol (Table 12)): 33%
percentage of ticks affected on the Warm Plate ([1]; 0.0598% in ethanol (Table 12)): 12%
percentage of ticks affected on the Warm Plate ([1]; 0.089% in ethanol (Table 12)): 46%
percentage of ticks affected on the Warm Plate ([1]; 0.2% in ethanol (Table 12)): 57%
percentage of ticks affected on the Warm Plate ([1]; 0.447% in ethanol (Table 12)): 53%
percentage of ticks affected on the Warm Plate ([1]; 1% in ethanol (Table 12)): 56%
percentage of ticks affected overtime ([1]; 0.25 h post-application): 83%
percentage of ticks affected overtime ([1]; 0.5 h post-application): 40%
percentage of ticks affected overtime ([1]; 1 h post-application): 83%
percentage of ticks affected overtime ([1]; 2 h post-application): 58%
percentage of ticks affected overtime ([1]; 4 h post-application): 58%
percentage of ticks affected overtime ([1]; 6 h post-application): 0%
ticks affected ([1]; dose of 0.89%): 46%
% of mosquitoes' repellency ([2]; 0.00032% concentration): 8%
% of mosquitoes' repellency ([2]; 0.0016% concentration): 0%
mean ± SD numbers of mosquitoes landed on the Warm Body ([2]; 0.0016% dilution (Table 4)): 70.0 ± 14.3
number of mosquitoes landed on the Warm Body ([2]; 0.0016% in ethanol (Table 7, one replicate)): 70
% of mosquitoes' repellency ([2]; 0.0080% concentration): 0%
number of mosquitoes landed on the Warm Body ([2]; 0.008% in ethanol (Table 7, one replicate)): 63
number of mosquitoes landed on the Warm Body ([2]; 0.0119% in ethanol (Table 7, one replicate)): 22
% of mosquitoes' repellency ([2]; 0.040% concentration): 69%
mean ± SD numbers of mosquitoes landed on the Warm Body ([2]; 0.04% dilution (Table 4)): 20.7 ± 2.1
number of mosquitoes landed on the Warm Body ([2]; 0.04% in ethanol (Table 7, one replicate)): 21
number of mosquitoes landed on the Warm Body ([2]; 0.0598% in ethanol (Table 7, one replicate)): 6
% of mosquitoes' repellency ([2]; 0.20% concentration): 78%
number of mosquitoes landed on the Warm Body ([2]; 0.2% in ethanol (Table 7, one replicate)): 9
number of mosquitoes landed on the Warm Body ([2]; 0.447% in ethanol (Table 7, one replicate)): 0
% of mosquitoes' repellency ([2]; 1% concentration): 89%
mean ± SD numbers of mosquitoes landed on the Warm Body ([2]; 1% dilution (Table 4)): 7.7 ± 1.6
number of mosquitoes landed on the Warm Body ([2]; 1% in ethanol (Table 7, one replicate)): 8
repulsion (in words) ([2]; concentrations lower than 0.04%): only low repulsion

OCC1Cc2ccccc2C1 [2,3-dihydro-1H-inden-2-ylmethanol]
pest or weed control at 0.04 % [1, 3]: 29%
pest or weed control at 0.2 % [1, 4]: 100%
pest or weed control at 1 % [1, 5]: 92%
concentration at which the level of 85% of ticks affected is reached [1]: 0.2%
number of mosquitoes landed on the Warm Body ([2]; 0.0016% in ethanol (Table 6)): 32
number of mosquitoes landed on the Warm Body ([2]; 0.04% in ethanol (Table 6)): 1

Cc1ccc2c(c1)CC(C)(C(C)O)C2 (stereo not shown) [1-(2,5-dimethyl-2-indanyl)-1-ethanol]
pest or weed control at 0.0016 % [1, 6]: 15%
pest or weed control at 0.04 % [1, 7]: 0%
pest or weed control at 1 % [1, 8]: 100%
pest or weed control at 0.04 % [2, 9]: ~70%

CC1(CO)Cc2ccc(C(C)(C)C)cc2C1 (racemic) [(+−)-5-tert-butyl-2-methyl-2-indanmethanol]
pest or weed control at 0.0016 % [1, 6]: 0%
pest or weed control at 0.04 % [1, 7]: 8%
pest or weed control at 1 % [1, 8]: 92%
repellent effect with increasing amount of stimuli (in words) ([2]; 0.0016%, 0.04% and 1% in ethanol (FIG. 10)): low decrease of landing

Cc1cc(C)c2c(c1)CC(C)(CO)C2 (racemic) [ingredient #1, (2,4,6-trimethyl-2,3-dihydro-1H-inden-2-yl)methanol]
MEAN % affected (ticks) ([1]; 0.4 mg/mL in ethanol (Table 5)): 67%
MEAN % affected (ticks) ([1]; 10 mg/mL in ethanol (Table 5)): 100%
ticks non-affected over 12 (in words) ([1]; 0.04%): three and five ticks over 12 being non-affected
ticks affected / not affected over 12 (in words) ([1]; 1%): all the ticks being affected
pest or weed control at 0.0016 % [1, 6]: 20%
pest or weed control at 0.0016 % ([1]; Ixodes ricinus, 0.0016% in ethanol (Table 12), read-out: percentage of ticks affected on the Warm Plate): 20%
pest or weed control at 0.0053 % ([1]; Ixodes ricinus, 0.0053% in ethanol (Table 12), read-out: percentage of ticks affected on the Warm Plate): 7%
pest or weed control at 0.008 % ([1]; Ixodes ricinus, 0.008% in ethanol (Table 12), read-out: percentage of ticks affected on the Warm Plate): 8%
pest or weed control at 0.0119 % ([1]; Ixodes ricinus, 0.0119% in ethanol (Table 12), read-out: percentage of ticks affected on the Warm Plate): 23%
pest or weed control at 0.0178 % ([1]; Ixodes ricinus, 0.0178% in ethanol (Table 12), read-out: percentage of ticks affected on the Warm Plate): 0%
pest or weed control at 0.0267 % ([1]; Ixodes ricinus, 0.0267% in ethanol (Table 12), read-out: percentage of ticks affected on the Warm Plate): 7%
pest or weed control at 0.04 % [1, 7]: 57%
pest or weed control at 0.04 % ([1]; Ixodes ricinus, 0.04% in ethanol (Table 12), read-out: percentage of ticks affected on the Warm Plate): 57%
pest or weed control at 0.0598 % ([1]; Ixodes ricinus, 0.0598% in ethanol (Table 12), read-out: percentage of ticks affected on the Warm Plate): 13%
pest or weed control at 0.089 % ([1]; Ixodes ricinus, 0.089% in ethanol (Table 12), read-out: percentage of ticks affected on the Warm Plate): 41%
pest or weed control at 0.2 % ([1]; Ixodes ricinus, 0.2% in ethanol (Table 12), read-out: percentage of ticks affected on the Warm Plate): 85%
pest or weed control at 0.447 % ([1]; Ixodes ricinus, 0.447% in ethanol (Table 12), read-out: percentage of ticks affected on the Warm Plate): 92%
pest or weed control at 1 % [1, 8]: 96%
pest or weed control at 1 % ([1]; Ixodes ricinus, 1% in ethanol (Table 12), read-out: percentage of ticks affected on the Warm Plate): 96%
mosquitoes landing on the warm body ([2]; 1% in ethanol (FIG. 8)): no mosquito landed
pest or weed control at 0.04 % [2, 9]: 88%

CC(C)c1ccc2c(c1)CC(C)(CO)C2 (racemic) [5-isopropyl-2-methyl-2-indanmethanol]
pest or weed control at 0.00032 % ([1]; Ixodes ricinus, 0.00032% (Table 10), read-out: percentage of ticks affected on the Warm Plate): 0%
pest or weed control at 0.0016 % ([1]; Ixodes ricinus, 0.0016% (Table 10), read-out: percentage of ticks affected on the Warm Plate): 21%
pest or weed control at 0.008 % ([1]; Ixodes ricinus, 0.008% (Table 10), read-out: percentage of ticks affected on the Warm Plate): 0%
pest or weed control at 0.04 % [1, 3]: 71%
pest or weed control at 0.2 % [1, 4]: 87%
pest or weed control at 1 % [1, 5]: 92%
concentration at which the level of 85% of ticks affected is reached [1]: 0.2%
pest or weed control at 0.0016 % [2, 9]: 4 to 29%

N#CC1Cc2ccccc2C1 [2,3-dihydro-1H-indene-2-carbonitrile]
pest or weed control at 0.04 % [1, 3]: 29%
pest or weed control at 0.2 % [1, 4]: 71%
pest or weed control at 1 % [1, 5]: 100%
number of mosquitoes landed on the Warm Body ([2]; 0.0016% in ethanol (Table 6)): 59
number of mosquitoes landed on the Warm Body ([2]; 0.04% in ethanol (Table 6)): 13
